According to US9840520B2, “Heterocyclic hydroxamic acids as protein deacetylase inhibitors and dual protein deacetylase-protein kinase inhibitors and methods of use thereof” (The Regents of the University of Colorado, A Body Corporate, priority 2014, dated 2017):

Assays:
MCF7 = assay: NCI60 tumour cell line screen, MCF7; type: cell-based; conditions: Homo sapiens; MCF7, Breast Cancer
MOLT-4 = assay: NCI60 tumour cell line screen, MOLT-4; type: cell-based; conditions: Homo sapiens; MOLT-4, Leukemia
OVCAR-4 = assay: NCI60 tumour cell line screen, OVCAR-4; type: cell-based; conditions: Homo sapiens; OVCAR-4, Ovarian Cancer
TK-10 = assay: NCI60 tumour cell line screen, TK-10; type: cell-based; conditions: Homo sapiens; TK-10, Renal Cancer
SK-OV-3 = assay: NCI60 tumour cell line screen, SK-OV-3; type: cell-based; conditions: Homo sapiens; SK-OV-3, Ovarian Cancer
A498 = assay: NCI60 tumour cell line screen, A498; type: cell-based; conditions: Homo sapiens; A498, Renal Cancer
RPMI-8226 = assay: NCI60 tumour cell line screen, RPMI-8226; type: cell-based; conditions: Homo sapiens; RPMI-8226, Leukemia
HS578T = assay: NCI60 tumour cell line screen, HS578T; type: cell-based; conditions: Homo sapiens, Hs-578T, Breast Cancer
K-562 = assay: NCI60 tumour cell line screen, K-562; type: cell-based; conditions: Homo sapiens, K562; K-562, Leukemia
HCC-2998 = assay: NCI60 tumour cell line screen, HCC-2998; type: cell-based; conditions: Homo sapiens; HCC-2998, Colon Cancer
NCI-H322M = assay: NCI60 tumour cell line screen, NCI-H322M; type: cell-based; conditions: Homo sapiens, Non-Small Cell Lung Cancer
LOXIMVI = assay: NCI60 tumour cell line screen, LOXIMVI; type: cell-based; conditions: Homo sapiens, LOX IMVI, Melanoma
786-0 = assay: NCI60 tumour cell line screen, 786-0; type: cell-based; conditions: Homo sapiens; 786-0, Renal Cancer
SF-539 = assay: NCI60 tumour cell line screen, SF-539; type: cell-based; conditions: Homo sapiens; SF-539, CNS Cancer
CCRF-CEM = assay: NCI60 tumour cell line screen, CCRF-CEM; type: cell-based; conditions: Homo sapiens, Leukemia
BT-549 = assay: NCI60 tumour cell line screen, BT-549; type: cell-based; conditions: Homo sapiens; BT-549, Breast Cancer
SN12C = assay: NCI60 tumour cell line screen, SN12C; type: cell-based; conditions: Homo sapiens, Renal Cancer
UO-31 = assay: NCI60 tumour cell line screen, UO-31; type: cell-based; conditions: Homo sapiens; UO-31, Renal Cancer
KM12 = assay: NCI60 tumour cell line screen, KM12; type: cell-based; conditions: Homo sapiens; KM12, Colon Cancer
RXF393 = assay: NCI60 tumour cell line screen, RXF393; type: cell-based; conditions: Homo sapiens, RXF 393; RXF393, Renal Cancer
SNB-19 = assay: NCI60 tumour cell line screen, SNB-19; type: cell-based; conditions: Homo sapiens; SNB-19, CNS Cancer
DU-145 = assay: NCI60 tumour cell line screen, DU-145; type: cell-based; conditions: Homo sapiens; DU-145, Prostate Cancer
NCI-H23 = assay: NCI60 tumour cell line screen, NCI-H23; type: cell-based; conditions: Homo sapiens; NCI-H23, Non-Small Cell Lung Cancer
UACC-257 = assay: NCI60 tumour cell line screen, UACC-257; type: cell-based; conditions: Homo sapiens; UACC-257, Melanoma
MDA-MB-435 = assay: NCI60 tumour cell line screen, MDA-MB-435; type: cell-based; conditions: Homo sapiens; MDA-MB-435, Melanoma
HL-60(TB) = assay: NCI60 tumour cell line screen, HL-60(TB); type: cell-based; conditions: Homo sapiens, Leukemia
NCI/ADR-RES = assay: NCI60 tumour cell line screen, NCI/ADR-RES; type: cell-based; conditions: Homo sapiens, Ovarian Cancer
NCI-H522 = assay: NCI60 tumour cell line screen, NCI-H522; type: cell-based; conditions: Homo sapiens; NCI-H522, Non-Small Cell Lung Cancer
NCI-H226 = assay: NCI60 tumour cell line screen, NCI-H226; type: cell-based; conditions: Homo sapiens; NCI-H226, Non-Small Cell Lung Cancer
MDA-MB-231/ATCC = assay: NCI60 tumour cell line screen, MDA-MB-231/ATCC; type: cell-based; conditions: Homo sapiens, Breast Cancer
PC-3 = assay: NCI60 tumour cell line screen, PC-3; type: cell-based; conditions: Homo sapiens; PC-3, Prostate Cancer
MALME-3M = assay: NCI60 tumour cell line screen, MALME-3M; type: cell-based; conditions: Homo sapiens, Melanoma
OVCAR-8 = assay: NCI60 tumour cell line screen, OVCAR-8; type: cell-based; conditions: Homo sapiens; OVCAR-8, Ovarian Cancer
SNB-75 = assay: NCI60 tumour cell line screen, SNB-75; type: cell-based; conditions: Homo sapiens; SNB-75, CNS Cancer
OVCAR-3 = assay: NCI60 tumour cell line screen, OVCAR-3; type: cell-based; conditions: Homo sapiens; OVCAR-3, Ovarian Cancer
OVCAR-5 = assay: NCI60 tumour cell line screen, OVCAR-5; type: cell-based; conditions: Homo sapiens; OVCAR-5, Ovarian Cancer
SK-MEL-28 = assay: NCI60 tumour cell line screen, SK-MEL-28; type: cell-based; conditions: Homo sapiens; SK-MEL-28, Melanoma
HCT-116 = assay: NCI60 tumour cell line screen, HCT-116; type: cell-based; conditions: Homo sapiens; HCT-116, Colon Cancer
M14 = assay: NCI60 tumour cell line screen, M14; type: cell-based; conditions: Homo sapiens; M14, Melanoma
UACC-62 = assay: NCI60 tumour cell line screen, UACC-62; type: cell-based; conditions: Homo sapiens; UACC-62, Melanoma
SF-268 = assay: NCI60 tumour cell line screen, SF-268; type: cell-based; conditions: Homo sapiens; SF-268, CNS Cancer
IGROV1 = assay: NCI60 tumour cell line screen, IGROV1; type: cell-based; conditions: Homo sapiens, IGROV-1; IGROV1, Ovarian Cancer
HT29 = assay: NCI60 tumour cell line screen, HT29; type: cell-based; conditions: Homo sapiens, HT-29; HT29, Colon Cancer
SF-295 = assay: NCI60 tumour cell line screen, SF-295; type: cell-based; conditions: Homo sapiens; SF-295, CNS Cancer
NCI-H460 = assay: NCI60 tumour cell line screen, NCI-H460; type: cell-based; conditions: Homo sapiens; NCI-H460, Non-Small Cell Lung Cancer
A549/ATCC = assay: NCI60 tumour cell line screen, A549/ATCC; type: cell-based; conditions: Homo sapiens, Non-Small Cell Lung Cancer
U251 = assay: NCI60 tumour cell line screen, U251; type: cell-based; conditions: Homo sapiens, U-251; U251, CNS Cancer
T-47D = assay: NCI60 tumour cell line screen, T-47D; type: cell-based; conditions: Homo sapiens, T47D, Breast Cancer
HCT-15 = assay: NCI60 tumour cell line screen, HCT-15; type: cell-based; conditions: Homo sapiens; HCT-15, Colon Cancer
ACHN = assay: NCI60 tumour cell line screen, ACHN; type: cell-based; conditions: Homo sapiens, Renal Cancer
SK-MEL-2 = assay: NCI60 tumour cell line screen, SK-MEL-2; type: cell-based; conditions: Homo sapiens; SK-MEL-2, Melanoma
SR = assay: NCI60 tumour cell line screen, SR; type: cell-based; conditions: Homo sapiens, Leukemia
SK-MEL-5 = assay: NCI60 tumour cell line screen, SK-MEL-5; type: cell-based; conditions: Homo sapiens; SK-MEL-5, Melanoma
CAKI-1 = assay: NCI60 tumour cell line screen, CAKI-1; type: cell-based; conditions: Homo sapiens; CAKI-1, Renal Cancer
SW-620 = assay: NCI60 tumour cell line screen, SW-620; type: cell-based; conditions: Homo sapiens; SW-620, Colon Cancer
HOP-62 = assay: NCI60 tumour cell line screen, HOP-62; type: cell-based; conditions: Homo sapiens; HOP-62, Non-Small Cell Lung Cancer
COLO205 = assay: NCI60 tumour cell line screen, COLO205; type: cell-based; conditions: Homo sapiens, COLO 205; COLO205, Colon Cancer
MDA-MB-468 = assay: NCI60 tumour cell line screen, MDA-MB-468; type: cell-based; conditions: Homo sapiens; MDA-MB-468, Breast Cancer
HDAC-9 = HDAC-9 (Homo sapiens, UniProt Q9UKV0); assay: HDAC Fluorescent Activity Assay (Fluor de Lys), HDAC-9
HDAC-6 = HDAC-6 (Homo sapiens, UniProt Q9UBN7); assay: HDAC Fluorescent Activity Assay (Fluor de Lys), HDAC-6
HDAC-2 = HDAC-2 (Homo sapiens, UniProt Q92769); assay: HDAC Fluorescent Activity Assay (Fluor de Lys), HDAC-2
HDAC-3 = HDAC-3 (Homo sapiens, UniProt O15379); assay: HDAC Fluorescent Activity Assay (Fluor de Lys), HDAC-3
HDAC-10 = HDAC-10 (Homo sapiens, UniProt Q969S8); assay: HDAC Fluorescent Activity Assay (Fluor de Lys), HDAC-10
HDAC-1 = HDAC-1 (Homo sapiens, UniProt Q13547); assay: HDAC Fluorescent Activity Assay (Fluor de Lys), HDAC-1
HDAC-4 = HDAC-4 (Homo sapiens, UniProt P56524); assay: HDAC Fluorescent Activity Assay (Fluor de Lys), HDAC-4
HDAC-5 = HDAC-5 (Homo sapiens, UniProt Q9UQL6); assay: HDAC Fluorescent Activity Assay (Fluor de Lys), HDAC-5
HDAC-7 = HDAC-7 (Homo sapiens, UniProt Q8WUI4); assay: HDAC Fluorescent Activity Assay (Fluor de Lys), HDAC-7
HDAC-11 = HDAC-11 (Homo sapiens, UniProt Q96DB2); assay: HDAC Fluorescent Activity Assay (Fluor de Lys), HDAC-11
HDAC-8 = HDAC-8 (Homo sapiens, UniProt Q9BY41); assay: HDAC Fluorescent Activity Assay (Fluor de Lys), HDAC-8

HDAC-5, sequence (Q9UQL6 whole entry): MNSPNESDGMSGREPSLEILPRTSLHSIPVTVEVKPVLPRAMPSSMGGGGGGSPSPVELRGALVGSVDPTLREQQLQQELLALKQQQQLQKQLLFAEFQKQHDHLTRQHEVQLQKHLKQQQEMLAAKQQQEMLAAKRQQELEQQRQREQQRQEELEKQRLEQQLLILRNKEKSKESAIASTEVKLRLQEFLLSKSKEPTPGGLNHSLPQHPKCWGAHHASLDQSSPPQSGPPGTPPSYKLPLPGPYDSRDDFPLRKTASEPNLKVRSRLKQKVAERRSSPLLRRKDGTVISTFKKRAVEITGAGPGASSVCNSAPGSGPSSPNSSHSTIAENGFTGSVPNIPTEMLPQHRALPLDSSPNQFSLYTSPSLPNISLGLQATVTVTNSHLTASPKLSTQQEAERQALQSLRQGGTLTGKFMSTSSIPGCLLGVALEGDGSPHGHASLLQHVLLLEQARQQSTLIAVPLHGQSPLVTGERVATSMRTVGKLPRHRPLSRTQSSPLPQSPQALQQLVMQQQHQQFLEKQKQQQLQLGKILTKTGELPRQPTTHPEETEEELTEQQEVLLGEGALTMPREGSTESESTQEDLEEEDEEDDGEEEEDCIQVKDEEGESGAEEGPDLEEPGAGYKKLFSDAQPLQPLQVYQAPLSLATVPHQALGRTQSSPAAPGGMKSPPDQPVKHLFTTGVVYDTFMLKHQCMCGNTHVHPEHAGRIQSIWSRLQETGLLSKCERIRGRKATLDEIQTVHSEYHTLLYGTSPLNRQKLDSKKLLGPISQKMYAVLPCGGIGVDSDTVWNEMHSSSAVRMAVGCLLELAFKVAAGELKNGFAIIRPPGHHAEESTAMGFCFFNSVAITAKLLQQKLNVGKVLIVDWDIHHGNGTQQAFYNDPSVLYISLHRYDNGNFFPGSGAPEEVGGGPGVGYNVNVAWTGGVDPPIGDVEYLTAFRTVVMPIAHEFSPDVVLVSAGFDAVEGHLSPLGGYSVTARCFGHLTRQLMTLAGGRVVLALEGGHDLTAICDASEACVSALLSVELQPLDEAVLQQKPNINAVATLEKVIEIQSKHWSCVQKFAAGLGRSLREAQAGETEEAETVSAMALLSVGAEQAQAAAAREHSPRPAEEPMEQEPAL
HDAC-1, sequence (Q13547 whole entry): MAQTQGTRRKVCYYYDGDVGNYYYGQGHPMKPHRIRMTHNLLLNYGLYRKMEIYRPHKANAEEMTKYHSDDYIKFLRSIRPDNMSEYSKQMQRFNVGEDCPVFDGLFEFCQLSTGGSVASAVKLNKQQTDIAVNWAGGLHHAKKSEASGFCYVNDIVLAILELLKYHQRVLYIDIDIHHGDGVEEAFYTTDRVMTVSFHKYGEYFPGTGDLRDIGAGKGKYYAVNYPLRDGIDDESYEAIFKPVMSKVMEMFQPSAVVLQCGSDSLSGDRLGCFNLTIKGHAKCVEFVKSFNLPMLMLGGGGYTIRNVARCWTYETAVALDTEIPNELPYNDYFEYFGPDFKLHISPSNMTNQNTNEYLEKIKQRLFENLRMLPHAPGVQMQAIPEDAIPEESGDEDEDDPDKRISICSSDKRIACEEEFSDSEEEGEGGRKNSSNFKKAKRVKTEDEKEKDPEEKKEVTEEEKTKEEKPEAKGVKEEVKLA
HDAC-4, sequence (P56524 whole entry): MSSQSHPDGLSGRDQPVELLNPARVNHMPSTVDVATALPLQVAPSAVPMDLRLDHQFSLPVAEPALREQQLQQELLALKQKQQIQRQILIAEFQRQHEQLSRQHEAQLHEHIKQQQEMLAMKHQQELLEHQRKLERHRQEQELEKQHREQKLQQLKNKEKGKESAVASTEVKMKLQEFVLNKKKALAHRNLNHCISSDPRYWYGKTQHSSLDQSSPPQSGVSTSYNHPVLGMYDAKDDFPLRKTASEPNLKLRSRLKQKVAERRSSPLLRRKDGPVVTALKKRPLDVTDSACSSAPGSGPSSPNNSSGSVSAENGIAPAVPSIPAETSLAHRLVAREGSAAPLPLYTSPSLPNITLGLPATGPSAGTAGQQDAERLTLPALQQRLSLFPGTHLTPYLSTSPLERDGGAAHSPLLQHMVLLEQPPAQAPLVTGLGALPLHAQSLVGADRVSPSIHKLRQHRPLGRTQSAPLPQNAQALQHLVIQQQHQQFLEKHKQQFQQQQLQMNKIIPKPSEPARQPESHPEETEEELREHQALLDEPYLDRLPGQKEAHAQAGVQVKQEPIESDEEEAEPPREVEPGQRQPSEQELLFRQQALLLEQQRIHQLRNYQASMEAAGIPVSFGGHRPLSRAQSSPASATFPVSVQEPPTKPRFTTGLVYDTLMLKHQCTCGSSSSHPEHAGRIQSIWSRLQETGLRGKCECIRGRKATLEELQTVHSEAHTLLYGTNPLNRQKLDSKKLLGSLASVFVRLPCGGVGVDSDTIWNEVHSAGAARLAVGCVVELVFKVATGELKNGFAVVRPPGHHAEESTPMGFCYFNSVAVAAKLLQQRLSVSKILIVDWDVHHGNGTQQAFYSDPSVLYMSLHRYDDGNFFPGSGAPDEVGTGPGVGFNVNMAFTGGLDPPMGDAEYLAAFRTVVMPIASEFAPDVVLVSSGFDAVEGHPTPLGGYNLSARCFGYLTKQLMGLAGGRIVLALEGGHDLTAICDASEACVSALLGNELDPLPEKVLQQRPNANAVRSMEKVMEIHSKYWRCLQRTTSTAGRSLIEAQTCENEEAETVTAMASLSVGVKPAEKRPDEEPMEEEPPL
HDAC-9, sequence (Q9UKV0 whole entry): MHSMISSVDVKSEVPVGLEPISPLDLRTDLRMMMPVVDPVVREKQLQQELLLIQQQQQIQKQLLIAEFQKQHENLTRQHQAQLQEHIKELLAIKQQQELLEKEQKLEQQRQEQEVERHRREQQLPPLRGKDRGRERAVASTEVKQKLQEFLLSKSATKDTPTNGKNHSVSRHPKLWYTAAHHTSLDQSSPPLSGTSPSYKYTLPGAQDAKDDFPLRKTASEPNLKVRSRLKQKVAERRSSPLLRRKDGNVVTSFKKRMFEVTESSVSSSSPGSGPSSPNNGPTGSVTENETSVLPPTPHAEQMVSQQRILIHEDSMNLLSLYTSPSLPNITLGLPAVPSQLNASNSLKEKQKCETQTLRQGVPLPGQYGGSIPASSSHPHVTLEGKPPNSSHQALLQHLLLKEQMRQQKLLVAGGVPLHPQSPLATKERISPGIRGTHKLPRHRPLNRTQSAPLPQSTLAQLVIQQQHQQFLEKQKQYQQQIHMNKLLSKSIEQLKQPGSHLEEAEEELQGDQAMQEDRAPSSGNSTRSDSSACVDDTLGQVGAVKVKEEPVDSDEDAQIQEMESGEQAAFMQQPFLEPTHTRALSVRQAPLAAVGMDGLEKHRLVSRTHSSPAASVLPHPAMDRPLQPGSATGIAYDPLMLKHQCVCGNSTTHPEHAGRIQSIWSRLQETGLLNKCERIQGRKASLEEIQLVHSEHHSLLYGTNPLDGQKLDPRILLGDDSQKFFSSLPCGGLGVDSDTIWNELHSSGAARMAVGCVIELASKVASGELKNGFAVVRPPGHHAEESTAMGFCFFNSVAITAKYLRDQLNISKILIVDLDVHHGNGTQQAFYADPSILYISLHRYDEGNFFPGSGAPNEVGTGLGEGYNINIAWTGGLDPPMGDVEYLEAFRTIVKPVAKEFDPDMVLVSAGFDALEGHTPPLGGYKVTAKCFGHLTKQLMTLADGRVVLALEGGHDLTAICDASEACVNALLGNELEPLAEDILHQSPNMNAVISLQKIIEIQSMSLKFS
HDAC-3, sequence (O15379 whole entry): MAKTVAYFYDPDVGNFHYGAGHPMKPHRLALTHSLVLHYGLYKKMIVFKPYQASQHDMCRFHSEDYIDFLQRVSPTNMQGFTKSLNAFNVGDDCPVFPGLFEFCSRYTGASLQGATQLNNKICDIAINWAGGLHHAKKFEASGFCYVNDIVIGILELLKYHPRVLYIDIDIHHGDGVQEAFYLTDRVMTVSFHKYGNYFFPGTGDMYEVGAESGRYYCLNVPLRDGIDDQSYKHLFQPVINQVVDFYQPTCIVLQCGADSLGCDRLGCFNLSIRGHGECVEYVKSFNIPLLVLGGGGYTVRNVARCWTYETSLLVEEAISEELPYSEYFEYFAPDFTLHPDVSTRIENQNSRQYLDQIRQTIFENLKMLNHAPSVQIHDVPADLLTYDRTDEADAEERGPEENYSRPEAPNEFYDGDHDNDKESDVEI
HDAC-3, sequence (Q9Y618 395-489 partner limits assumed): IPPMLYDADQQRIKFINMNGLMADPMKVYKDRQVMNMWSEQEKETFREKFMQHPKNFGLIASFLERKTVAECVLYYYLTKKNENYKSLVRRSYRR
HDAC-10, sequence (Q969S8 whole entry): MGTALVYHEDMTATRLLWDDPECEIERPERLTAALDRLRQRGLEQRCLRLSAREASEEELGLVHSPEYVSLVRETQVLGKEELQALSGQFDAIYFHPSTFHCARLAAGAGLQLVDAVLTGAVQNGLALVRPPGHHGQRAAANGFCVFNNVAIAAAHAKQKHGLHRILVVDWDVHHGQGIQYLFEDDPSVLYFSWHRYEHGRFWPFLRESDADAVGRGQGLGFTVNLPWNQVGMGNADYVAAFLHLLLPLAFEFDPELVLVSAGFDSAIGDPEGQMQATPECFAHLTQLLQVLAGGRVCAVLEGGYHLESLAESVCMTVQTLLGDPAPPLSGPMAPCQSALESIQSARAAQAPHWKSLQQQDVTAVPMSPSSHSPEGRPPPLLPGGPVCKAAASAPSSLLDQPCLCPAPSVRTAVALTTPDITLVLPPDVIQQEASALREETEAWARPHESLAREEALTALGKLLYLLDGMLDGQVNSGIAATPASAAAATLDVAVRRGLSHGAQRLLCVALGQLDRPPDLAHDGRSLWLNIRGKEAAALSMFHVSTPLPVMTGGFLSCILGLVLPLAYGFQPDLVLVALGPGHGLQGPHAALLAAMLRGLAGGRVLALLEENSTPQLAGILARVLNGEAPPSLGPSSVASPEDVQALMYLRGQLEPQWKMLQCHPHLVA

## O=C(CCCCCOc1ccc(Nc2nc(NC3CCCCC3)c3nc[nH]c3n2)cc1)NO [Example 3, 6-(4-(6-(cyclohexylamino)-9H-purin-2-ylamino)phenoxy)-N-hydroxyhexanamide]
MCF7
  GI50: 1460 nM
MOLT-4
  GI50: 1780 nM
OVCAR-4
  GI50: 3820 nM
TK-10
  GI50: 2680 nM
SK-OV-3
  GI50: 2520 nM
A498
  GI50: 195 nM
RPMI-8226
  GI50: 2810 nM
HS578T
  GI50: 1610 nM
K-562
  GI50: 2030 nM
HCC-2998
  GI50: 3580 nM
NCI-H322M
  GI50: 3000 nM
LOXIMVI
  GI50: 1180 nM
786-0
  GI50: 4610 nM
SF-539
  GI50: 1570 nM
CCRF-CEM
  GI50: 667 nM
BT-549
  GI50: 5510 nM
SN12C
  GI50: 3230 nM
UO-31
  GI50: 3520 nM
KM12
  GI50: 1740 nM
RXF393
  GI50: 1900 nM
SNB-19
  GI50: 5960 nM
DU-145
  GI50: 2510 nM
NCI-H23
  GI50: 4730 nM
UACC-257
  GI50: 2940 nM
MDA-MB-435
  GI50: 2460 nM
HL-60(TB)
  GI50: 2950 nM
NCI/ADR-RES
  GI50: 13500 nM
NCI-H522
  GI50: 2720 nM
NCI-H226
  GI50: 2880 nM
MDA-MB-231/ATCC
  GI50: 1930 nM
PC-3
  GI50: 2980 nM
MALME-3M
  GI50: 2490 nM
OVCAR-8
  GI50: 2800 nM
SNB-75
  GI50: 1690 nM
OVCAR-3
  GI50: 2170 nM
OVCAR-5
  GI50: 2260 nM
SK-MEL-28
  GI50: 3640 nM
HCT-116
  GI50: 1450 nM
M14
  GI50: 1960 nM
UACC-62
  GI50: 2220 nM
SF-268
  GI50: 3830 nM
IGROV1
  GI50: 2240 nM
HT29
  GI50: 2540 nM
SF-295
  GI50: 2350 nM
NCI-H460
  GI50: 2040 nM
A549/ATCC
  GI50: 2300 nM
U251
  GI50: 1960 nM
T-47D
  GI50: 2330 nM
HCT-15
  GI50: 4300 nM
ACHN
  GI50: 3570 nM
SK-MEL-2
  GI50: 2930 nM
SR
  GI50: 669 nM
SK-MEL-5
  GI50: 2820 nM
CAKI-1
  GI50: 4680 nM
SW-620
  GI50: 895 nM
HOP-62
  GI50: 2960 nM
COLO205
  GI50: 1260 nM
MDA-MB-468
  GI50: 2400 nM

## Cn1cnc2c(NC3CCCCC3)nc(Nc3ccc(OCCCCCCC(=O)NO)cc3)nc21 [Example 8, 7-(4-(6-(Cyclohexylamino)-9-methyl-9H-purin-2-ylamino)phenoxy)-N-hydroxyheptanamide]
HDAC-9
  IC50: > 100000 nM
HDAC-6
  IC50: 6.8 nM
HDAC-2
  IC50: 124 nM
HDAC-3
  IC50: 140 nM
HDAC-10
  IC50: 19 nM
HDAC-1
  IC50: 23 nM
HDAC-4
  IC50: > 100000 nM
HDAC-5
  IC50: > 100000 nM
HDAC-7
  IC50: > 100000 nM
HDAC-11
  IC50: 12 nM
HDAC-8
  IC50: 268 nM
